From ChEMBL document CHEMBL5316277, “Discovery of Spiro[pyrrolidine-3,3'-oxindole] LXRβ Agonists for the Treatment of Osteoporosis” (J Med Chem, 2023)
Activity calls are given as the source filed them. The calls are words filed in the database; no cut-off is given here.

Each compound was assayed on BMMC (assay: Anti-osteoporosis activity in C57BL/6 mouse bone marrow macrophage cells assessed as inhibition of RANKL-induced osteoclastogenesis at more than 10 uM measured after 5 days in presence of MCSF by TRAP staining based assay). Conditions: time 5.0 day.
Type: functional, cell-based
For `CC(C)(C)OC(=O)N1CC[C@]2(C(=O)Nc3ccccc32)[C@H]1c1cc(F)cc(-c2ccc(CC(=O)O)c(Cl)c2)c1`, the inhibition was “inactive”. For `CC(C)(C)OC(=O)N1CC[C@]2(C(=O)Nc3ccccc32)[C@H]1c1cc(F)cc(-c2ccc(C(=O)O)c(S(C)(=O)=O)c2)c1`, the inhibition was “inactive”.

The compounds below were run on BMMC (assay: Anti-osteoporosis activity in C57BL/6 mouse bone marrow macrophage cells assessed as inhibition of RANKL-induced osteoclastogenesis measured after 5 days in presence of MCSF by TRAP staining based assay). Conditions: C57BL/6, BMMC, 120 h.
Type: functional, cell-based
`COC(=O)c1ccc(-c2cc(F)cc([C@H]3N(S(=O)(=O)C(C)C)CC[C@]34C(=O)N(C)c3ccccc34)c2)cc1S(C)(=O)=O` gave an IC50 of 200 nM. `COC(=O)c1c(F)cc(-c2cc(F)cc([C@H]3N(C(=O)OC(C)(C)C)CC[C@]34C(=O)Nc3ccccc34)c2)cc1F` showed an IC50 of 4140 nM. With `COCc1ccc(-c2cc(F)cc([C@H]3N(S(=O)(=O)C(C)C)CC[C@]34C(=O)N(C)c3ccccc34)c2)cc1S(C)(=O)=O` the IC50 was 200 nM. Compound `COC(=O)Cc1ccc(-c2cc(F)cc([C@H]3N(C(=O)OC(C)(C)C)CC[C@]34C(=O)Nc3ccccc34)c2)cc1Cl` has an IC50 of 3400 nM. `COC(=O)c1ccc(-c2cc(F)cc([C@H]3N(C(=O)OC(C)(C)C)CC[C@]34C(=O)Nc3ccccc34)c2)cc1Cl` was tested, and the IC50 was 8780 nM. With `COC(=O)c1c[nH]c2cc(-c3cc(F)cc([C@H]4N(C(=O)OC(C)(C)C)CC[C@]45C(=O)Nc4ccccc45)c3)ccc12` the IC50 was 2890 nM. Compound `CC(C)(C)OC(=O)N1CC[C@]2(C(=O)Nc3ccccc32)[C@H]1c1cccc(-c2ccc(CO)c(S(C)(=O)=O)c2)c1` has an IC50 of 200 nM. With `COC(=O)c1ccc(-c2cc(F)cc([C@H]3N(C(=O)OC(C)(C)C)CC[C@]34C(=O)N(C)c3ccccc34)c2)cc1S(C)(=O)=O` the IC50 was 2170 nM. For `COC(=O)c1cn(C)c2cc(-c3cc(F)cc([C@H]4N(C(=O)OC(C)(C)C)CC[C@]45C(=O)Nc4ccccc45)c3)ccc12`, the IC50 was 1560 nM. In the case of `CC(C)(C)CC(=O)N1CC[C@]2(C(=O)Nc3ccccc32)[C@H]1c1cccc(-c2ccc(CO)c(S(C)(=O)=O)c2)c1`, the IC50 is reported as 360 nM. In the case of `COCc1ccc(-c2cc(F)cc([C@H]3N(C(=O)OC(C)(C)C)CC[C@]34C(=O)N(C)c3ccccc34)c2)cc1S(C)(=O)=O`, the IC50 is reported as 220 nM. In the case of `COC(=O)c1ccc(-c2cccc([C@H]3N(C(=O)OC(C)(C)C)CC[C@]34C(=O)N(C)c3ccccc34)c2)cc1S(C)(=O)=O`, the IC50 is reported as 200 nM. Work on `COC(=O)Cn1ccc2cc(-c3cc(F)cc([C@H]4N(C(=O)OC(C)(C)C)CC[C@]45C(=O)Nc4ccccc45)c3)ccc21` yielded an IC50 of 3400 nM.

The compounds below were run on BMMC (assay: Cytotoxicity against C57BL/6 mouse bone marrow macrophage cells assessed as reduction in cell viability up to 10 uM incubated for 72 hrs by MTT assay). Conditions: not given.
Type: toxicity, cell-based
With `COC(=O)c1ccc(-c2cc(F)cc([C@H]3N(C(=O)OC(C)(C)C)CC[C@]34C(=O)Nc3ccccc34)c2)cc1S(C)(=O)=O` the Activity was “Non-Toxic”.
